According to ChEMBL document CHEMBL4507319 (2021):

How the values were obtained:
[1] = test system: Tyrosine-protein kinase ABL1 (Homo sapiens), P00519 [Q252H]; conditions: Compound concentration 1000.0 nM
[2] = target: Death-associated protein kinase 2 (Homo sapiens) (UniProt Q9UIK4); conditions: Compound concentration 1000.0 nM
[3] = target: Receptor tyrosine-protein kinase erbB-3 (Homo sapiens) (UniProt P21860); conditions: Compound concentration 1000.0 nM
[4] = target: Serine/threonine-protein kinase/endoribonuclease IRE1 (Homo sapiens) (UniProt O75460); conditions: Compound concentration 1000.0 nM
[5] = target: MAP kinase-interacting serine/threonine-protein kinase 1 (Homo sapiens) (UniProt Q9BUB5); conditions: Compound concentration 1000.0 nM
Sequence of MAP kinase-interacting serine/threonine-protein kinase 1 (Homo sapiens) (Q9BUB5 whole entry, looked up): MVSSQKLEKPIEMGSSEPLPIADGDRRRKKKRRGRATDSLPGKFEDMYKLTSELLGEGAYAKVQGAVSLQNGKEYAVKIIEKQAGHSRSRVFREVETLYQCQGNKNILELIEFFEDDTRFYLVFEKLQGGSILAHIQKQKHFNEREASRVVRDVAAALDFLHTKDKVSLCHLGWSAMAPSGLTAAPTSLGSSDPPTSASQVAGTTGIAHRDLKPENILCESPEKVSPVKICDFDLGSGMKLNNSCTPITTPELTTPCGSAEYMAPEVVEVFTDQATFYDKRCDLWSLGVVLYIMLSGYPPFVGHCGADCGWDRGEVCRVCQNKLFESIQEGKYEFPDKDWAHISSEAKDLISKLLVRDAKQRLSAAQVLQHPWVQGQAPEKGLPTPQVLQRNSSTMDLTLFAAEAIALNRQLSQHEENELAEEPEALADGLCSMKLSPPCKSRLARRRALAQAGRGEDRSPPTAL

[6] = target: Cyclin-dependent kinase 16 (Homo sapiens) (UniProt Q00536); conditions: Compound concentration 1000.0 nM
Sequence of Cyclin-dependent kinase 16 (Homo sapiens) (Q00536 whole entry, canonical isoform): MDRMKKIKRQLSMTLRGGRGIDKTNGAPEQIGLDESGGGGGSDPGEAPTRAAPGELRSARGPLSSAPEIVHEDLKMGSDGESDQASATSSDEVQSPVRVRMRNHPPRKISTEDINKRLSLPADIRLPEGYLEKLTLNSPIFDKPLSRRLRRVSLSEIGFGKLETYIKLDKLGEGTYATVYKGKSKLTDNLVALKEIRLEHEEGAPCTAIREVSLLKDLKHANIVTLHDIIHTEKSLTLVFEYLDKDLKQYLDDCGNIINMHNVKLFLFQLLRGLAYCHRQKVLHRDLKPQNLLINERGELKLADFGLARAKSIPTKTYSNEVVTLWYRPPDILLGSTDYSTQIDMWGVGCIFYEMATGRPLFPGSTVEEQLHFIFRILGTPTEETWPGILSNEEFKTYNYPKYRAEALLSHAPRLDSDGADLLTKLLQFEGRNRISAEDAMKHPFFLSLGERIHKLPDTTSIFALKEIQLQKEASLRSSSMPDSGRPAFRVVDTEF

[7] = test system: Phosphatidylinositol 4,5-bisphosphate 3-kinase catalytic subunit alpha isoform (Homo sapiens), P42336 [E545K]; conditions: Compound concentration 1000.0 nM
Sequence of Phosphatidylinositol 4,5-bisphosphate 3-kinase catalytic subunit alpha isoform (Homo sapiens), P42336 [E545K] (P42336 whole entry E545K, canonical isoform): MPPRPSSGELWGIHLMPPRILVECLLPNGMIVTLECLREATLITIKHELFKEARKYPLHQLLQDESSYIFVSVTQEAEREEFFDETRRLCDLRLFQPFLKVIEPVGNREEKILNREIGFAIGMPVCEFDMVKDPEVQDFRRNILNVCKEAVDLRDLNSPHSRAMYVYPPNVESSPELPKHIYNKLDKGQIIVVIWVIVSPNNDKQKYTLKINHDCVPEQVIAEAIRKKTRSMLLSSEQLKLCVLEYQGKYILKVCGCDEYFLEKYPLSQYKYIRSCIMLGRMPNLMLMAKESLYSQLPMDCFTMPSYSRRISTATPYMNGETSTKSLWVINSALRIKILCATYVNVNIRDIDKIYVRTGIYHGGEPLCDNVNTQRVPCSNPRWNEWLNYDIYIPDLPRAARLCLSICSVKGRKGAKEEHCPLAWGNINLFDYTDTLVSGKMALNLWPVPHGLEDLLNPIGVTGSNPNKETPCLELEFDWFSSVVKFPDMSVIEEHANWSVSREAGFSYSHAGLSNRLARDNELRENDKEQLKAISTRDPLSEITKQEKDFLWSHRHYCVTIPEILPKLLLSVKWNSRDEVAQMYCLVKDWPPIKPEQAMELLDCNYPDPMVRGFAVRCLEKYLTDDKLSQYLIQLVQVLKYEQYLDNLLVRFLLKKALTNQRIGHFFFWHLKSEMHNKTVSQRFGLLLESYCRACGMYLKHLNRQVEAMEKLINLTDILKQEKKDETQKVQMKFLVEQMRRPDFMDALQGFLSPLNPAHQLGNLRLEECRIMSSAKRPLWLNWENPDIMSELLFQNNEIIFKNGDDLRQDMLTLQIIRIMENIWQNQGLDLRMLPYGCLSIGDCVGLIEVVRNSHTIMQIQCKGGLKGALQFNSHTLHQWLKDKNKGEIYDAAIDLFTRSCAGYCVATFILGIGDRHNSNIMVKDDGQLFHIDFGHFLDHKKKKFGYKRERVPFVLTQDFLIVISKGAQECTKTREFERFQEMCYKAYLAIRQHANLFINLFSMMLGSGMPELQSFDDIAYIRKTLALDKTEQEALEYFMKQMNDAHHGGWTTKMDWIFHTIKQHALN

[8] = target: Serine/threonine-protein kinase pim-1 (Homo sapiens) (UniProt P11309); conditions: Compound concentration 1000.0 nM
Sequence of Serine/threonine-protein kinase pim-1 (Homo sapiens) (P11309 whole entry, looked up): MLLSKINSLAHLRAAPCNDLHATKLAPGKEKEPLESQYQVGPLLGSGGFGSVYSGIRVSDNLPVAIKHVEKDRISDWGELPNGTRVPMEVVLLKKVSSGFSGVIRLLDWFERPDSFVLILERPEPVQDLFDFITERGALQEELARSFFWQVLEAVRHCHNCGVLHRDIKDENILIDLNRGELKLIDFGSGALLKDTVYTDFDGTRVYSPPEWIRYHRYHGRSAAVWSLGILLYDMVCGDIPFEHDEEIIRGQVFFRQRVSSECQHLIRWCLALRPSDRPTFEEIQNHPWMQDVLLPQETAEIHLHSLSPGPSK

[9] = target: T1, Serine/threonine-protein kinase D2 (Homo sapiens) (UniProt Q9BZL6); conditions: Compound concentration 1000.0 nM
T1 sequence (whole entry): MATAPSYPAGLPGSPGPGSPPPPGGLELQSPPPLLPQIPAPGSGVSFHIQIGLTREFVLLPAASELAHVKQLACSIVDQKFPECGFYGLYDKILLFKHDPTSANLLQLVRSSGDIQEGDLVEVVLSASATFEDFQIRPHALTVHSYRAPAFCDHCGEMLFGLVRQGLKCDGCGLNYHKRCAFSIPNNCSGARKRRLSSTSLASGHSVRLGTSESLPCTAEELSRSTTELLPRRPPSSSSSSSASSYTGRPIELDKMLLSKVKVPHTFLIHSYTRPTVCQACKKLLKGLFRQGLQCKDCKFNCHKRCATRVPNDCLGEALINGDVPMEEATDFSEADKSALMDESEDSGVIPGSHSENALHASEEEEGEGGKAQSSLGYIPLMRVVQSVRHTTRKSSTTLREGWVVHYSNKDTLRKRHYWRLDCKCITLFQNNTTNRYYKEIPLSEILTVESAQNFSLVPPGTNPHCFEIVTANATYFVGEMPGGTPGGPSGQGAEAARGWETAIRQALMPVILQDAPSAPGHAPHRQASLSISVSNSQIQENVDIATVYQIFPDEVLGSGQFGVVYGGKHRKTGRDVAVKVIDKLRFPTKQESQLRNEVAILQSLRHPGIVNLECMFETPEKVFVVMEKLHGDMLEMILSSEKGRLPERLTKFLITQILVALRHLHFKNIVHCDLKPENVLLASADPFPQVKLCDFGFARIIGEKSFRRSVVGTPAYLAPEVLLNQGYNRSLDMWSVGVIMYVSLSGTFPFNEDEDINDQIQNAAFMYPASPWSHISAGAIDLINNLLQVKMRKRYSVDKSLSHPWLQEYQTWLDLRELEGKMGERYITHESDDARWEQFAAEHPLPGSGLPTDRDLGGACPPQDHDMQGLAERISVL

[10] = target: T2, cGMP-dependent protein kinase 1 (Homo sapiens) (UniProt Q13976); conditions: Compound concentration 1000.0 nM
T2 sequence (whole entry): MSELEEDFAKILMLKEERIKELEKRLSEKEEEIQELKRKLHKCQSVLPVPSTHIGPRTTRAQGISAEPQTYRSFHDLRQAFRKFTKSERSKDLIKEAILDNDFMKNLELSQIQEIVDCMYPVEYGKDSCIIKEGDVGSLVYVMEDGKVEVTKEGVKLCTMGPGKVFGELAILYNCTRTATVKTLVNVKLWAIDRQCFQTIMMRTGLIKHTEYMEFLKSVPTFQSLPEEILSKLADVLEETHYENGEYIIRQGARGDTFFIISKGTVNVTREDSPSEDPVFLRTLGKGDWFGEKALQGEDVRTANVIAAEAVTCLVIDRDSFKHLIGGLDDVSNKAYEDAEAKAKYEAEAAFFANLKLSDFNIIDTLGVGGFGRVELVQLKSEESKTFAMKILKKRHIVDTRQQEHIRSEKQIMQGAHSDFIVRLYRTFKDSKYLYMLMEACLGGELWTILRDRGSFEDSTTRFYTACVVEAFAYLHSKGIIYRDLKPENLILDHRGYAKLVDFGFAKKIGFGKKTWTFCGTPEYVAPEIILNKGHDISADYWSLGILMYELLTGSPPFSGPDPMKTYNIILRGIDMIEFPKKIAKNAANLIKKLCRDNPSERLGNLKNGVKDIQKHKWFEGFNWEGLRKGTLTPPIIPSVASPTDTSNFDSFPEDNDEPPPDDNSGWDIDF

[11] = target: Uncharacterized serine/threonine-protein kinase SBK3 (Homo sapiens) (UniProt P0C264); conditions: Compound concentration 1000.0 nM
Sequence of Uncharacterized serine/threonine-protein kinase SBK3 (Homo sapiens) (P0C264 whole entry): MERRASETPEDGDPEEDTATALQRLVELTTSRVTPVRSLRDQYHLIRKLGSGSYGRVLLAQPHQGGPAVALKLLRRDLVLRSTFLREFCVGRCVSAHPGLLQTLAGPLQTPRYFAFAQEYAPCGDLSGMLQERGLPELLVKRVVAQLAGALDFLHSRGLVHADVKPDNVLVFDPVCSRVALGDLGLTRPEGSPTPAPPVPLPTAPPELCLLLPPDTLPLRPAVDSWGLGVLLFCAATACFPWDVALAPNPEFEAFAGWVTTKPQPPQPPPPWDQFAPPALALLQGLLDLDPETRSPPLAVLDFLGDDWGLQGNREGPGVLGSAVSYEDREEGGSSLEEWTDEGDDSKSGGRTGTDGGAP

[12] = target: T3, Serine/threonine-protein kinase tousled-like 1 (Homo sapiens) (UniProt Q9UKI8); conditions: Compound concentration 1000.0 nM
T3 sequence (whole entry): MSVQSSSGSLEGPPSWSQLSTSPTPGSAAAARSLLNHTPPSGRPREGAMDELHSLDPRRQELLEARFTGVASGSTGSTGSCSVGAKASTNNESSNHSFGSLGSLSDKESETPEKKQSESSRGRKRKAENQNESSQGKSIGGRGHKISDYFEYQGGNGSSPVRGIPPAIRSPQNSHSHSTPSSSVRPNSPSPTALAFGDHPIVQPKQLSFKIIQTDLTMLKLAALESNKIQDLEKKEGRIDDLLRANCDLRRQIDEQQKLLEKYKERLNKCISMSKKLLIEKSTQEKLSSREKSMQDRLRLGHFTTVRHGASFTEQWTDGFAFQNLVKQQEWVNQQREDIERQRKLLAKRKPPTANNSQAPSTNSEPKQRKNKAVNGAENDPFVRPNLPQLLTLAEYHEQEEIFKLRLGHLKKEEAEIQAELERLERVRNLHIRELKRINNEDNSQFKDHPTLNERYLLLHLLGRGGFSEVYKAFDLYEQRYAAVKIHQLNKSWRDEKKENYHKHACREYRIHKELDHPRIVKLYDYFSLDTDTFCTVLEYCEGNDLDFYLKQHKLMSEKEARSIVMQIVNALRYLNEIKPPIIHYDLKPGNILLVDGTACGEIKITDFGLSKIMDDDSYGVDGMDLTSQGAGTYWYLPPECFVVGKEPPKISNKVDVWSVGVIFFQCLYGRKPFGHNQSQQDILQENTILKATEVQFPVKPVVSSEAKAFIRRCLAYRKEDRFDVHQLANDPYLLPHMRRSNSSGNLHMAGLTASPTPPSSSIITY

[13] = target: Muscarinic acetylcholine receptor M2 (Homo sapiens) (UniProt P08172); conditions: Compound concentration 10.0 uM
Sequence of Muscarinic acetylcholine receptor M2 (Homo sapiens) (P08172 whole entry): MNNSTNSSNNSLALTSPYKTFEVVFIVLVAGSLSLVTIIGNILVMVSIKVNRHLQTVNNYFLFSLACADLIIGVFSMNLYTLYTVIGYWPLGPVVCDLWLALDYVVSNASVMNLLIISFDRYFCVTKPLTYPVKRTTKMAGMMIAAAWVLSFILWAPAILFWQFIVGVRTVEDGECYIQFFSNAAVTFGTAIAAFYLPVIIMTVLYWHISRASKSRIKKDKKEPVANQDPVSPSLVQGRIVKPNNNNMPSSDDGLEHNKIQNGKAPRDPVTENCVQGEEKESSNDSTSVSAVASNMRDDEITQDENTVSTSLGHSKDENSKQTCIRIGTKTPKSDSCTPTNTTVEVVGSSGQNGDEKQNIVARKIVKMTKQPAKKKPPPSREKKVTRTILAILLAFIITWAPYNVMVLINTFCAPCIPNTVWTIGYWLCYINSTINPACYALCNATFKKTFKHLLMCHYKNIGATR

Sequence of Receptor tyrosine-protein kinase erbB-3 (Homo sapiens) (P21860 whole entry): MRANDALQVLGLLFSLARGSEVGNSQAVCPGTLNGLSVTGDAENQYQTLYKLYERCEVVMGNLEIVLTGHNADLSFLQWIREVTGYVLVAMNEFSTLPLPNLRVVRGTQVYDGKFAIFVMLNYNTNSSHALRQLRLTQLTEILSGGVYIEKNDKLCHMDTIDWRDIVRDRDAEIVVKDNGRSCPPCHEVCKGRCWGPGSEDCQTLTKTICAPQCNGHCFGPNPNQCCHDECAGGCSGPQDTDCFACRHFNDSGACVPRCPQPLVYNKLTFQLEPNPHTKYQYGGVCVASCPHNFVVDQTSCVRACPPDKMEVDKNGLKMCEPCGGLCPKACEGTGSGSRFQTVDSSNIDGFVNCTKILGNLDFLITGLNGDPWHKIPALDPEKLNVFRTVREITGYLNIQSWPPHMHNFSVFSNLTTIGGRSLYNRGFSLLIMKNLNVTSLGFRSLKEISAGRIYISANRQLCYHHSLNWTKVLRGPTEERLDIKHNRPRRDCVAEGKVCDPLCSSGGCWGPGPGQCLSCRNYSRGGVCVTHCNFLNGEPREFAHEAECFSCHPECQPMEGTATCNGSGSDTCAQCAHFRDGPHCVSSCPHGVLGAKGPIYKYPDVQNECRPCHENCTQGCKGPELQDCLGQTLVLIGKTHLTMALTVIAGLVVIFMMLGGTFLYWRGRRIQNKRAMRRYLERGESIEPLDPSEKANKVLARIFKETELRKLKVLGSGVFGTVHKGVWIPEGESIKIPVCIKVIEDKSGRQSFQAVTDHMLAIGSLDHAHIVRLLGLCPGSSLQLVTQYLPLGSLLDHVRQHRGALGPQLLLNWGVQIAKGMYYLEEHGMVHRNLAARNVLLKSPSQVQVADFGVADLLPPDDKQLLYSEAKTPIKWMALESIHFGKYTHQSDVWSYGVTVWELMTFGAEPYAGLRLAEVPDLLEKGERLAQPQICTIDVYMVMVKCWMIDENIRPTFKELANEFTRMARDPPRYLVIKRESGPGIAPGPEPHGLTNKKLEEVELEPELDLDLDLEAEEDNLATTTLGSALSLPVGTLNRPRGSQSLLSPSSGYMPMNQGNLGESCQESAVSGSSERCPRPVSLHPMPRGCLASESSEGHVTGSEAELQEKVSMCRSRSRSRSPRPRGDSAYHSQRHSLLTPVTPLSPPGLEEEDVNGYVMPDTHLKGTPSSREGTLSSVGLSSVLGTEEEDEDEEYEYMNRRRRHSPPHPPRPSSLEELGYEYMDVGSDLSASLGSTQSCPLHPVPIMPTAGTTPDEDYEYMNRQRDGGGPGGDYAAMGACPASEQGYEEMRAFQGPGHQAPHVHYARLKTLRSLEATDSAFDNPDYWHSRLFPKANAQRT
Sequence of Death-associated protein kinase 2 (Homo sapiens) (Q9UIK4 whole entry, looked up): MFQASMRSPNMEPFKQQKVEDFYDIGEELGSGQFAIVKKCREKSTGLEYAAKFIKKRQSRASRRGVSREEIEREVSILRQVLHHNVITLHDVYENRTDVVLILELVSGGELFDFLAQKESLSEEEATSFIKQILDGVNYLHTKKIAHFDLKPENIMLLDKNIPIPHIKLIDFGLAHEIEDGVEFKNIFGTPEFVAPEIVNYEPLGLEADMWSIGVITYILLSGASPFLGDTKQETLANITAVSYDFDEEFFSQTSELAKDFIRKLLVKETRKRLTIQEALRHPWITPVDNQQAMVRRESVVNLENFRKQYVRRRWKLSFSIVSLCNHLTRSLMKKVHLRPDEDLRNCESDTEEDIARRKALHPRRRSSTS

CCc1ccccc1C(=O)Nc1n[nH]c2c(C)c(F)c(C3C(C#N)=C(C)N(C)C(C)=C3C#N)cc12 [BAY-3827]
inactive: residual activity [1] 82% | residual activity [2] 63% | residual activity [3] 91% | residual activity [4] 70% | residual activity [5] 100% | residual activity [6] 100% | residual activity [7] 100% | residual activity [8] 100% | residual activity [9] 87% | residual activity [10] 100% | residual activity [11] 73% | residual activity [12] 100% | inhibition [13] 5.1%

CC1=C(C#N)C(c2ccc3c(c2)c(NC(=O)c2ccccc2C)nn3C)C(C#N)=C(C)N1 [BAY-974]
inactive: residual activity [1] 100% | residual activity [2] 98% | residual activity [3] 100% | residual activity [4] 84% | residual activity [5] 70% | residual activity [6] 93% | residual activity [7] 90% | residual activity [8] 100% | residual activity [9] 95% | residual activity [10] 100% | residual activity [11] 100% | residual activity [12] 88% | inhibition [13] -2.08%
